For orientation: IC50 means the point on the concentration scale where inhibition reaches its midpoint. Read a low IC50 as higher potency.

Test [1] concerns the target USP28 (Homo sapiens (Human), UniProt Q96RU2). Kind of test: Ubiquitin-Rhodamine 110 Assay for USP28 Activity. It counts as biochemical. On the procedure: The assay was performed in a final volume of 20 μL in assay buffer containing 20 mM Tris-HCl (pH 8.0, (1M Tris-HCl, pH 8.0 solution; Corning 46-031-CM)), 2 mM CaCl2 (1M Calcium Chloride solution; Sigma #21114) 2 mM BME (2-Mercaptoethanol; Sigma 63689-25ML -F), 0.01% Prionex (0.22 μM filtered, Sigma #G-0411), and 0.01% Triton X-100. Stock compound solutions were stored at −20° C. as 10 mM in DMSO. Up to 1 month prior to the assay, 2 mM test compounds were pre-dispensed into assay plates (Black, low volume; Corning #3820) and frozen at −20° C. Prestamped assay plates were allowed to come to room temperature on the day of the assay. For the screen, 100 nL of 2 mM was pre-dispensed for a final screening concentration of 10 μM (DMSO(fc)=0.5%). […] Plates were incubated stacked for 90 minutes at room temperature before fluorescence was read on the Envision (Excitation at 485 nm and Emission at 535 nm; Perkin Elmer) or on the PheraSTAR (Excitation at 485 nm and Emission at 535 nm; BMG Labtech).
For follow-up studies, the assay was performed in a final volume of 15 μL in assay buffer containing 20 mM Tris-HCl (pH 8.0, (1M Tris-HCl, pH 8.0 solution; Corning 46-031-CM)), 3 mM BME (2-Mercaptoethanol; Sigma 63689-25ML-F), 0.03% BGG (0.22 μM filtered, Sigma, G7516-25G), and 0.01% Triton X-100 (Sigma, T9284-10L). Nanoliter quantities of either an 8-point or 10-point, 3-fold serial dilution in DMSO was pre-dispensed into assay plates (Perkin Elmer, ProxiPlate-384 F Plus) for a final test concentration of either 25 μM to 11 nM or 25 μM to 1.3 nM, respectively. Enzyme USP28, construct USP28 (USP28-5(1-1077)-TEV-6*His; LifeSensors) concentration and incubation times were optimized for the maximal signal-to -background while maintaining initial velocity conditions at a fixed substrate concentration. The final concentration of the enzyme in the assay was 75 pM. […] 5 μL of 2× enzyme was added to assay plates (pre-stamped with compound) preincubated with USP28 for 30 minutes and then 5 μL of 2× Ub-Rh110 was added to assay plates. Plates were incubated stacked for 20 min at room temperature before 5 μL of stop solution was added (final concentration of 10 mM citric acid (Sigma, 251275-500G)). Fluorescence was read on the Envision (Excitation at 485 nm and Emission at 535 nm; Perkin Elmer) or on the PheraSTAR (Excitation at 485 nm and Emission at 535 nm; BMG Labtech).
(§1) For both the USP28 and USP25 assay formats, data were reported as percent inhibition compared with control wells based on the following equation: % inh=1-((FLU-AveLow)/(AveHigh−AveLow)) where FLU=measured Fluorescence, AveLow=average Fluorescence of no enzyme control (n=16), and AveHigh=average Fluorescence of DMSO control (n=16). IC50 values were determined by curve fitting of the standard 4 parameter logistic fitting algorithm included in the Activity Base software package: IDBS XE Designer Model205. Data is fitted using the Levenburg Marquardt algorithm.

Test [2] concerns the target USP25 (Homo sapiens (Human), UniProt Q9UHP3). Kind of test: Ubiquitin-Rhodamine 110 Assay for USP25 Activity. It counts as biochemical. On the procedure:
The assay was performed in a final volume of 9 μL in assay buffer containing 20 mM Tris-HCl (pH 8.0, (1M Tris-HC1, pH 8.0 solution; Corning 46-031-CM)), 3 mM BME (2-Mercaptoethanol; Sigma 63689-25ML-F), 0.03% BGG (0.22 μM filtered, Sigma, G7516-25G), and 0.01% Triton X-100 (Sigma, T9284-10L). Nanoliter quantities of 10-point, 3-fold serial dilution in DMSO was pre-dispensed into 1536 assay plates (Corning, #3724BC) for a final test concentration of 25 μM to 1.3 nM, top to lowest dose, respectively. Enzyme USP25, construct USP25-His6, (Boston Biochem E-546). Concentration and incubation times were optimized for the maximal signal-to-background while maintaining initial velocity conditions at a fixed substrate concentration. The final concentration of the enzyme in the assay was 75 pM. […] 3 μL of 2× enzyme was added to assay plates (pre-stamped with compound) preincubated with […] for 30 minutes and then 3 μL of 2× Ub-Rh110 was added to assay plates. Plates were incubated for 45 minutes at room temperature before addition of 3 μL of stop solution (final concentration of 10 mM citric acid (Sigma, 251275-500G)). Fluorescence was read on the Envision (Excitation at 485 nm and Emission at 535 nm; Perkin Elmer) or on the PheraSTAR (Excitation at 485 nm and Emission at 535 nm; BMG Labtech).
as §1

USP25, sequence (Q9UHP3 whole entry): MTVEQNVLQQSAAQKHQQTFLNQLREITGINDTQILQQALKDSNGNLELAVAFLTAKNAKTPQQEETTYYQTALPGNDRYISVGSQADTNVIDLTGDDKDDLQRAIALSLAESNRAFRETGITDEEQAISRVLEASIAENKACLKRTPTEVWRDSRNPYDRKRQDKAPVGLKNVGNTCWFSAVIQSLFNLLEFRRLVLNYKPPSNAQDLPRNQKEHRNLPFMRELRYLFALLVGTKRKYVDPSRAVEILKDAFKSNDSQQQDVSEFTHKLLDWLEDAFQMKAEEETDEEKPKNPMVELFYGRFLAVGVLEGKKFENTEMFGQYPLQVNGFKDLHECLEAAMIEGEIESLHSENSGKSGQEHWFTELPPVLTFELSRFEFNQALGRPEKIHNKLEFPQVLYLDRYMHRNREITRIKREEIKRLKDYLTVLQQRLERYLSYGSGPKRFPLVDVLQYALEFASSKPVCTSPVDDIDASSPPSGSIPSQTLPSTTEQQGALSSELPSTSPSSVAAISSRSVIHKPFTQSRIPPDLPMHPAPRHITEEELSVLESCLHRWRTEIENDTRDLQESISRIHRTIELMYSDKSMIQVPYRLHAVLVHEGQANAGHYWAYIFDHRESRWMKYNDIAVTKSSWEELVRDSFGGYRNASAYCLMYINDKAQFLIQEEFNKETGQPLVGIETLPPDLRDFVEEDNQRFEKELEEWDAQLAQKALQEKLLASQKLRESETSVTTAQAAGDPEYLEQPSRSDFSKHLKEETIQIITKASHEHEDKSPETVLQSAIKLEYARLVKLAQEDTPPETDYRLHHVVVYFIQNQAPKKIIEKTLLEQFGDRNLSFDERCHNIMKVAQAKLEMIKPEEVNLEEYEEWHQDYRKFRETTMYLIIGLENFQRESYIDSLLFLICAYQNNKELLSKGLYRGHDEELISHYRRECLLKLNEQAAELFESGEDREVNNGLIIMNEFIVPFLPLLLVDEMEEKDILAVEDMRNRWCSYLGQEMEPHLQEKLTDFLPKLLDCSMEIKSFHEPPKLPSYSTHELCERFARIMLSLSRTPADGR
USP28, sequence (Q96RU2 whole entry): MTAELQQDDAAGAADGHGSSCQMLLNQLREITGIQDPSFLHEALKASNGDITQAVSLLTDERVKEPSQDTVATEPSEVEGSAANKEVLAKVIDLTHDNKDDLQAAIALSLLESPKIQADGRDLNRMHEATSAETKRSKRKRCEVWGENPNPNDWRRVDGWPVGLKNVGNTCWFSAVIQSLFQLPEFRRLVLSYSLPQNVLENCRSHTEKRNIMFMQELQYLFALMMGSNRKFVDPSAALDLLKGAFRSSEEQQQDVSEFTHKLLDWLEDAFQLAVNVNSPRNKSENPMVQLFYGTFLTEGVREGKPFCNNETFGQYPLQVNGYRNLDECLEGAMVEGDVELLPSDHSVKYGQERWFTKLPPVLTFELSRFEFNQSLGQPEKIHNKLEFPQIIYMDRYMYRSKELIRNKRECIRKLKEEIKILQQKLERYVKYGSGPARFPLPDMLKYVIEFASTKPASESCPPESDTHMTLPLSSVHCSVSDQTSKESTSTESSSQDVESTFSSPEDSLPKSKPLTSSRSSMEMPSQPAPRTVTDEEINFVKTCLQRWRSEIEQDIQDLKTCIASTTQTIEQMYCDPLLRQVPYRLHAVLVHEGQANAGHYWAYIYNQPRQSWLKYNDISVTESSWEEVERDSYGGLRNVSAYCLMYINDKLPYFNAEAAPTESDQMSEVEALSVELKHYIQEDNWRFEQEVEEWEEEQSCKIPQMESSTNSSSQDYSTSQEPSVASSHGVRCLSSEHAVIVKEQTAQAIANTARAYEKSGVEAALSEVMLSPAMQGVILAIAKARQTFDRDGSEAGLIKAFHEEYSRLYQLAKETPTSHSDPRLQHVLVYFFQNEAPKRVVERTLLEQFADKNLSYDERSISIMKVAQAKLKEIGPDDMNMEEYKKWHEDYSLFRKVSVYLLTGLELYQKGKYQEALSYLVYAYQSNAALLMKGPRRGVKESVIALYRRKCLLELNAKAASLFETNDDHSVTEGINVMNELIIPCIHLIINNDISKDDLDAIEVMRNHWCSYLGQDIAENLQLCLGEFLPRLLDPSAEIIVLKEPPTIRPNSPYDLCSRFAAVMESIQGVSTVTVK

In the case of `Cc1ccc2c(N)c(C(=O)NCCc3ccc(N4CC[C@@H]5NCC[C@@H]54)cc3)sc2n1` (single isomer, unassigned) [Example I-93], the concentration for half-maximal inhibition (IC50) in test [1] and in test [2] was < 200 nM in each case.
In the case of `Cc1ccc2c(N)c(C(=O)NCCc3ccc(N4CC[C@H]5NCC[C@H]54)cc3)sc2n1` (single isomer, unassigned) [Example I-94], the concentration for half-maximal inhibition (IC50) in test [1] and in test [2] was 200 to 2000 nM in each case.
As for `Cc1ccc2c(N)c(C(=O)NC[C@@H](C)c3cc(F)c(N4CC5CCC(C4)N5)cc3F)sc2n1` (single isomer, unassigned) [Example I-97], the IC50 lay in the range of 200 to 2000 nM in test [1] and 2000 to 10000 nM in test [2].
In the case of `Cc1ccc2c(N)c(C(=O)NC[C@H](C)c3cc(F)c(N4CC5CCC(C4)N5)cc3F)sc2n1` (single isomer, unassigned) [Example I-98], the IC50 in test [1] was < 200 nM; in test [2], 200 to 2000 nM.
As for `C[C@H](CNC(=O)c1sc2ncc(F)cc2c1N)c1cc(F)c(N2CC3CCC(C2)N3)cc1F` (single isomer, unassigned) [Example I-101], the IC50 in test [1] and in test [2] was 2000 to 10000 nM each time.
`C[C@@H](CNC(=O)c1sc2ncc(F)cc2c1N)c1cc(F)c(N2CC3CCC(C2)N3)cc1F` (single isomer, unassigned) [Example I-102]: the IC50 in test [1] and in test [2] was 2000 to 10000 nM throughout.
For `Cc1ccc2c(N)c(C(=O)NC[C@@H](C)c3ccc(N4CC5CCC(C4)N5)cc3F)sc2n1` (single isomer, unassigned) [Example I-103], the half-inhibitory concentration (IC50) in test [1] and in test [2] was 200 to 2000 nM throughout.
Turning to `Cc1ccc2c(N)c(C(=O)NC[C@H](C)c3ccc(N4CC5CCC(C4)N5)cc3F)sc2n1` (single isomer, unassigned) [Example I-104], the IC50 in test [1] and in test [2] was 200 to 2000 nM each time.
As to `Cc1ccc2c(N)c(C(=O)NC[C@@H](C)c3ccc(N4CC5CCC(C4)N5)c(F)c3)sc2n1` (single isomer, unassigned) [Example I-105], the 50% inhibitory concentration (IC50) in test [1] and in test [2] was 200 to 2000 nM in each case.
Consider `Cc1ccc2c(N)c(C(=O)NC[C@H](C)c3ccc(N4CC5CCC(C4)N5)c(F)c3)sc2n1` (single isomer, unassigned) [Example I-106], for which the concentration for half-maximal inhibition (IC50) in test [1] was in the range of 200 to 2000 nM; in test [2], 2000 to 10000 nM.
In test [1], `Cc1ccc2c(N)c(C(=O)NC[C@H](C)c3ccc(N4CCNCC4)cc3)sc2n1` (single isomer, unassigned) [Example I-202] showed an IC50 of 200 to 2000 nM.
In the case of `Cc1ccc2c(N)c(C(=O)NCCc3ccc(N4CCNCC4)c(C(F)(F)F)c3)sc2n1` [Compound I-3], in test [1], the IC50 was in the range of 200 to 2000 nM.
Regarding `Cc1ccc2c(N)c(C(=O)NCCc3cc(F)c(N4CCNCC4)c(F)c3)sc2n1` [Compound I-4], the IC50 in test [1] was < 200 nM.
In the case of `Cc1ccc2c(N)c(C(=O)NCCc3cc(F)c(N4CCNCC4)c(Cl)c3)sc2n1` [Compound I-8], the IC50 in test [1] is < 200 nM.
Compound `Cc1nc2sc(C(=O)NCCc3ccc(N4CCNCC4)c(Cl)c3)c(N)c2cc1F` [Compound I-9] had a concentration for half-maximal inhibition (IC50) in test [1] of 200 to 2000 nM.
Turning to `Cc1cnc2sc(C(=O)NCCc3ccc(N4CCNCC4)c(Cl)c3)c(N)c2c1` [Compound I-32], the IC50 in test [1] is 2000 to 10000 nM.
Turning to `Cc1ccc2c(N)c(C(=O)NCCc3cc(F)c(N4CCNCC4)c(F)c3F)sc2n1` [Compound I-35], the concentration for half-maximal inhibition (IC50) in test [1] was < 200 nM.
Take `Nc1c(C(=O)NCCc2ccc(N3CCNCC3)c(Cl)c2)sc2ncc(F)cc12` [Compound I-39]: the 50% inhibitory concentration (IC50) in test [1] lay in the range of 2000 to 10000 nM.
`Cc1ccc2c(N)c(C(=O)NCCc3c(F)cc(N4CCNCC4)cc3F)sc2n1` [Compound I-42]: the IC50 in test [1] lay within 200 to 2000 nM.
Take `Cc1ccc2c(N)c(C(=O)NCCc3cc(F)c(N4CC5CCC(C4)N5)c(F)c3)sc2n1` [Compound I-45]: the IC50 in test [1] was < 200 nM.
With `Cc1nc2sc(C(=O)NCCc3cc(F)c(N4CCNCC4)cc3F)c(N)c2cc1F` [Compound I-46], in test [1], the half-inhibitory concentration (IC50) was in the range of 200 to 2000 nM.
On to `CN[C@@H]1CCN(c2cc(F)c(CCNC(=O)c3sc4nc(C)ccc4c3N)cc2F)C1` [Compound I-49], for which the IC50 in test [1] was < 200 nM.
Same read-out and setting: next, `CN[C@H]1CCN(c2cc(F)c(CCNC(=O)c3sc4nc(C)ccc4c3N)cc2F)C1` [Compound I-50]: 200 to 2000 nM.
Turning to `COc1ccc2c(N)c(C(=O)NCCc3cc(F)c(N4CCNCC4)cc3F)sc2n1` [Compound I-51], the half-maximal inhibitory concentration (IC50) in test [1] is < 200 nM.
Same read-out and setting: the result for `CCc1nc2sc(C(=O)NCCc3cc(F)c(N4CCNCC4)cc3F)c(N)c2cc1F` [Compound I-55] reads < 200 nM.
For `Nc1c(C(=O)NCCc2ccc(N3CCNCC3)cc2)sc2nc(Cl)ccc12` [Compound I-57], the IC50 in test [1] lay within 200 to 2000 nM.
On to `Cc1ccc2c(N)c(C(=O)NCCc3ccc(N4CC5CNCC(C4)O5)cc3)sc2n1` [Compound I-66], for which the half-maximal inhibitory concentration (IC50) in test [1] is < 200 nM.
On to `Cc1ccc2c(N)c(C(=O)NCCc3ccc(N4CCNCC4)c(C)c3)sc2n1` [Example I-74, 3-Amino-6-methyl-N-(3-methyl-4-(piperazin-1-yl)phenethyl)thieno[2,3-b]pyridine-2-carboxamide], for which the concentration for half-maximal inhibition (IC50) in test [1] was < 200 nM.
Same read-out and setting: next, `Cc1ccc2c(N)c(C(=O)NCCc3ccc(-n4ncc5c4CNC5)c(F)c3)sc2n1` [Example I-80]: 2000 to 10000 nM; `Cc1ccc2c(N)c(C(=O)NCCc3cc(F)c(C4CCNCC4)cc3F)sc2n1` [Example I-113, 3-Amino-N-(2,5-difluoro-4-(piperidin-4-yl)phenethyl)-6-methylthieno[2,3-b]pyridine-2-carboxamide]: < 200 nM; `Nc1c(C(=O)NCCc2ccc(N3CCNCC3)cc2)sc2nc(C3CC3)ccc12` [Example I-114, 3-Amino-6-cyclopropyl-N-(4-(piperazin-1-yl)phenethyl)thieno[2,3-b]pyridine-2-carboxamide]: < 200 nM.
With `Cc1ccc2c(N)c(C(=O)NCCc3ccc(N4CC[C@@H](N(C)C)C4)cc3)sc2n1` [Example I-117], in test [1], the IC50 was 200 to 2000 nM.
Same read-out and setting: next, `Cc1ccc2c(N)c(C(=O)NCCc3ccc(N4CC[C@H](N(C)C)C4)cc3)sc2n1` [Example I-118]: 200 to 2000 nM.
In test [1], `Cc1ccc2c(N)c(C(=O)NCCc3ccc(N4CCN(CCN5CCCC5)CC4)cc3)sc2n1` [Example I-119] gave a half-inhibitory concentration (IC50) of 2000 to 10000 nM.
Turning to `Cc1ccc2c(N)c(C(=O)NCCc3ccc(N4CCn5cncc5C4)cc3)sc2n1` [Example I-120], in test [1], the IC50 is < 200 nM.
In turn, `CNc1ccc2c(N)c(C(=O)NCCc3ccc(N4CCNCC4)cc3)sc2n1` [Example I-187] came in with a half-inhibitory concentration (IC50) in test [1] of 200 to 2000 nM.
As for `Cc1ccc2c(N)c(C(=O)NC[C@@H](C)c3cc(F)c(N4CCNCC4)cc3F)sc2n1` [Example I-207], the IC50 in test [1] fell in the range of 200 to 2000 nM.
The same measure, in the same setting: next, `Cc1ccc2c(N)c(C(=O)NCCc3cc(F)c(N4CCN[C@H](C)C4)cc3F)sc2n1` [Example I-209, (R)-3-amino-N-(2,5-difluoro-4-(3-methylpiperazin-1-yl)phenethyl) -6-methylthieno[2,3-b]pyridine-2-carboxamide]: 10000 to 25000 nM.

For the origin of these results see US10913753B2, “Thienopyridine carboxamides as ubiquitin-specific protease inhibitors” (FORMA Therapeutics, Inc., priority 2016, dated 2021).
